Test results published in PubChem BioAssay (NCI).
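At the GI50, growth is halved. TGI: total growth inhibition.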

How the values were obtained:
Assay in all cases: growth of human tumour cells (NCI), 384-well format
786-0 renal = test system: 786-0 renal
A498 renal = test system: A498 renal
A549 NSCLC = test system: A549 NSCLC
ACHN renal = test system: ACHN renal
BT-549 breast = test system: BT-549 breast
CAKI-1 renal = test system: CAKI-1 renal
CCRF-CEM leukemia = test system: CCRF-CEM leukemia
DU-145 prostate = test system: DU-145 prostate
HCT-116 colon = test system: HCT-116 colon
HCT-15 colon = test system: HCT-15 colon
HL-60(TB) leukemia = test system: HL-60(TB) leukemia
HOP-62 NSCLC = test system: HOP-62 NSCLC
HOP-92 NSCLC = test system: HOP-92 NSCLC
HT29 colon = test system: HT29 colon
IGROV1 ovarian = test system: IGROV1 ovarian
K-562 leukemia = test system: K-562 leukemia
KM12 colon = test system: KM12 colon
LOX IMVI melanoma = test system: LOX IMVI melanoma
M14 melanoma = test system: M14 melanoma
MALME-3M melanoma = test system: MALME-3M melanoma
MCF7 breast = test system: MCF7 breast
MDA-MB-231 breast = test system: MDA-MB-231 breast
MDA-MB-435 melanoma = test system: MDA-MB-435 melanoma
MDA-MB-468 breast = test system: MDA-MB-468 breast
MOLT-4 leukemia = test system: MOLT-4 leukemia
NCI-H226 lung = test system: NCI-H226 lung
NCI-H23 lung = test system: NCI-H23 lung
NCI-H522 lung = test system: NCI-H522 lung
NCI/ADR-RES ovarian = test system: NCI/ADR-RES ovarian
OVCAR-3 ovarian = test system: OVCAR-3 ovarian
OVCAR-5 ovarian = test system: OVCAR-5 ovarian
OVCAR-8 ovarian = test system: OVCAR-8 ovarian
PC-3 prostate = test system: PC-3 prostate
RPMI-8226 leukemia = test system: RPMI-8226 leukemia
RXF 393 renal = test system: RXF 393 renal
SF-268 CNS = test system: SF-268 CNS
SF-295 CNS = test system: SF-295 CNS
SF-539 CNS = test system: SF-539 CNS
SK-MEL-2 melanoma = test system: SK-MEL-2 melanoma
SK-MEL-28 melanoma = test system: SK-MEL-28 melanoma
SK-OV-3 ovarian = test system: SK-OV-3 ovarian
SN12C renal = test system: SN12C renal
SNB-19 CNS = test system: SNB-19 CNS
SNB-75 CNS = test system: SNB-75 CNS
SW-620 colon = test system: SW-620 colon
T-47D breast = test system: T-47D breast
TK-10 renal = test system: TK-10 renal
U251 glioblastoma = test system: U251 glioblastoma
UACC-62 melanoma = test system: UACC-62 melanoma
UO-31 renal = test system: UO-31 renal

O=c1[nH]cc(N(CCCl)CCCl)c(=O)[nH]1
GI50 ([…]-0 renal): 16.8 µM | GI50 (A498 renal): 68.9 µM | GI50 (A549 NSCLC): 26.8 µM | GI50 (ACHN renal): 2.88 µM | TGI (ACHN renal): 8.7 µM | GI50 (BT-549 breast): 11.2 µM | TGI (BT-549 breast): 46.8 µM | GI50 (CAKI-1 renal): 4.39 µM | TGI (CAKI-1 renal): 76.3 µM | GI50 (CCRF-CEM leukemia): 2.21 µM | TGI (CCRF-CEM leukemia): 4.17 µM | GI50 (DU-145 prostate): 14.1 µM | TGI (DU-145 prostate): 42.1 µM | GI50 (HCT-116 colon): 7.54 µM | GI50 (HCT-15 colon): 7.48 µM | GI50 (HL-60(TB) leukemia): 1.23 µM | TGI (HL-60(TB) leukemia): 2.57 µM | GI50 (HOP-62 NSCLC): 7.79 µM | TGI (HOP-62 NSCLC): 31.3 µM | GI50 (HOP-92 NSCLC): 19.3 µM | GI50 (HT29 colon): 24.5 µM | GI50 (IGROV1 ovarian): 91.9 µM | GI50 (K-562 leukemia): 17.4 µM | GI50 (KM12 colon): 98.9 µM | GI50 (LOX IMVI melanoma): 19.4 µM | GI50 (M14 melanoma): 9.7 µM | TGI (M14 melanoma): 61.6 µM | GI50 (MALME-3M melanoma): 19.2 µM | GI50 (MCF7 breast): 18 µM | GI50 (MDA-MB-231 breast): 35.1 µM | GI50 (MDA-MB-435 melanoma): 86.4 µM | GI50 (MDA-MB-468 breast): 2.73 µM | TGI (MDA-MB-468 breast): 14.2 µM | GI50 (MOLT-4 leukemia): 0.594 µM | TGI (MOLT-4 leukemia): 1.87 µM | GI50 (NCI-H226 lung): 51.4 µM | GI50 (NCI-H23 lung): 12.3 µM | TGI (NCI-H23 lung): 57.9 µM | GI50 (NCI-H522 lung): 12.7 µM | TGI (NCI-H522 lung): 25.6 µM | GI50 (NCI/ADR-RES ovarian): 15.8 µM | GI50 (OVCAR-3 ovarian): 23.5 µM | GI50 (OVCAR-5 ovarian): 20.1 µM | TGI (OVCAR-5 ovarian): 67.4 µM | GI50 (OVCAR-8 ovarian): 9.13 µM | GI50 (PC-3 prostate): 73.1 µM | GI50 (RPMI-8226 leukemia): 6.85 µM | TGI (RPMI-8226 leukemia): 20.3 µM | GI50 (RXF 393 renal): 13.2 µM | TGI (RXF 393 renal): 27.4 µM | GI50 (SF-268 CNS): 5.68 µM | TGI (SF-268 CNS): 41.1 µM | GI50 (SF-295 CNS): 8.54 µM | TGI (SF-295 CNS): 26.4 µM | GI50 (SF-539 CNS): 7.24 µM | TGI (SF-539 CNS): 29.8 µM | GI50 (SK-MEL-2 melanoma): 68 µM | GI50 (SK-MEL-28 melanoma): 65.8 µM | GI50 (SK-OV-3 ovarian): 28.9 µM | GI50 (SN12C renal): 4.66 µM | TGI (SN12C renal): 53.6 µM | GI50 (SNB-19 CNS): 24.6 µM | GI50 (SNB-75 CNS): 29.1 µM | GI50 (SW-620 colon): 8.78 µM | GI50 (T-47D breast): 30 µM | GI50 (TK-10 renal): 50 µM | GI50 (U251 glioblastoma): 10.2 µM | GI50 (UACC-62 melanoma): 6.43 µM | GI50 (UO-31 renal): 20.3 µM
